Data on 10 compounds can be found in article PMC12390684 (Viruses, 2025).

pEC50, pIC50: −log10 of the molar value. Like-named read-outs stand apart in the source and are kept apart here.

Data set [1] addresses T1, IN-GCN2 interaction (6xHis-IN / GST-GCN2) (UniProt P04585+Q9P2K8). More on the design: method as in earlier work. As to conditions: single dose 100 µM, previous data ref 26; cited from earlier work.
For data set [2], the target named is T1, IN-GCN2 interaction (6xHis-IN / GST-GCN2). As to the kind of experiment: biochemical. It is filed as binding, HIV-1 IN; human GCN2. The conditions noted are these: for IN-GCN2 interaction (%): screen, single dose 100 µM, single replicate, residual AlphaLISA signal normalized to DMSO control; for pIC50: IC50, inhibition of IN-GCN2 interaction. On the technique in general: Alpha assays give light when donor and acceptor beads are brought close together.

A further data set relates to P4 MAGI CCR5+ cells. As to the kind of experiment: Cytotoxicity (CellTiter 96 AQueous). It is filed as cell-based.
Data set [3] can be described thus: Cytotoxicity (CellTiter 96 AQueous). It is filed as cell-based. The conditions noted are these: human.
The test system of another data set is HIV-1Laï. As to the kind of experiment: microbe, parasite or virus in culture. As to conditions: for pEC50: 24 h infection, read-out: EC50. It is filed as cell-based.
In data set [4] the target is T2, HIV-1 IN (Human immunodeficiency virus type 1 group M subtype B, UniProt P04585). As to conditions: read-out: IC50, non-selective inhibition of IN activities; cited from earlier work.
Data set [5] concerns the target T2, HIV-1 IN. As to the kind of experiment: Strand transfer (ST) gel-based assay. It is filed as biochemical. The conditions noted are these: for apparent IC50, inhibition of ST activity, in words: 400 nM IN, 20 nM substrate, 1 h 37 °C.
Data set [6] has as its target T3, phosphorylation of IN by GCN2 (UniProt P04585+Q9P2K8). As to the kind of experiment: In vitro phosphorylation assay: phosphorylation of IN by GCN2. It is filed as biochemical, HIV-1 IN; human GCN2. As to conditions: GCN2 25 nM, IN 700 nM; compound 10 µM to 4.6 nM.
In data set [7] the target is T4, GCN2 (Homo sapiens, UniProt Q9P2K8).
T4 sequence (Q9P2K8 192-1024): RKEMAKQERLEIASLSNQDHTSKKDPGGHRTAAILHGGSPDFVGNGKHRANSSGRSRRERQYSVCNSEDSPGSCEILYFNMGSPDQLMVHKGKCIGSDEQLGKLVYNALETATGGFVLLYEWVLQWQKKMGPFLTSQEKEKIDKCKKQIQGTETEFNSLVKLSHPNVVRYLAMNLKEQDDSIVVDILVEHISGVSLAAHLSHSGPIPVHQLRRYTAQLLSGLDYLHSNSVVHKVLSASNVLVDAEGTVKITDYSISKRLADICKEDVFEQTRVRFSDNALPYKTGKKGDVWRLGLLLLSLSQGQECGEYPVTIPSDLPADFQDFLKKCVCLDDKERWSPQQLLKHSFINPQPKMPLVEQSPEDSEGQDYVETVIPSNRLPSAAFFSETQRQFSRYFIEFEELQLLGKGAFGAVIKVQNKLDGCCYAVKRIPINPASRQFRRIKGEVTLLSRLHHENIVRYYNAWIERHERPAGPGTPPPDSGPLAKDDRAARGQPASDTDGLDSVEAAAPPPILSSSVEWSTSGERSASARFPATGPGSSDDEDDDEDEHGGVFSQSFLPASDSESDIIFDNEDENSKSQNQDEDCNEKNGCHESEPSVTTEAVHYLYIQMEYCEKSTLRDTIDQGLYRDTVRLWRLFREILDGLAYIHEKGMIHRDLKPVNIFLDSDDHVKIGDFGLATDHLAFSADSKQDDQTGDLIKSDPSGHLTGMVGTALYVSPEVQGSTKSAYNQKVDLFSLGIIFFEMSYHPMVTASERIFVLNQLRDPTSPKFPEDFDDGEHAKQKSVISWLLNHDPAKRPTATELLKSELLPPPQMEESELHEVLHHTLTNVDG
As to the kind of experiment: In vitro phosphorylation assay: GCN2 autophosphorylation. It is filed as biochemical. The conditions noted are these: GCN2 25 nM, IN 700 nM; compound 10 µM to 4.6 nM.

Data set [8] has as its target GST-GCN2, active truncated human GCN2 (192-1024) with an N-terminal GST tag (human) (UniProt Q9P2K8). As to the kind of experiment: AlphaScreen or HTRF.
The target in data set [9] is T3, phosphorylation of IN by GCN2. More on the design: method as in earlier work. The conditions noted are these: previous study ref 26; cited from earlier work.
Data set [10] deals with T4, GCN2. More on the design: method as in earlier work. As to conditions: previous study ref 26; cited from earlier work.
[11] abbreviates: SAR study, fresh dilutions from powder, at least three independent experiments.
Where [12] appears, read: plated compounds of the screen, dose-response 100 µM to 46 nM (Figure 1B), n = 9.
Setting [13] is: P4 MAGI CCR5+ cells, 24 h, read-out: CC50.
Where [14] appears, read: Human immunodeficiency virus 1, MAGI, 24 h.

`COc1cccc2c1C(=O)c1c(O)c3c(c(O)c1C2=O)C[C@@](O)(C(C)=O)C[C@@H]3O[C@H]1C[C@H](N)[C@H](O)[C@H](C)O1` [NSC82151]: the “inhibition of IN-GCN2 interaction” value in data set [1] is “around 70%”. Further, the “IN-GCN2 interaction (%)” value in [2] is 50.79%.
As to `COc1cc2c3c(c1O)-c1cc(N(Cc4ccccc4)Cc4ccccc4)ccc1CC3N(C)CC2` (centres unmarked) [NSC785176], the CC50 (in general, the concentration that lowers cell viability or growth by half) with P4 MAGI CCR5+ cells (24 h) is > 5 µM.
For the compound `COc1cccc2c1C(=O)c1c(O)c3c(c(O)c1C2=O)CC(O)(C(=O)CO)CC3OC1CC(N2CCOCC2C#N)C(O)C(C)O1` (centres unmarked) [Compound 1p], the pIC50 – broadly, the negative decadic logarithm of the IC50, by convention in mol/L – in data set [2] (setting [11]) is 4.21. In addition, the “lowest dose used, at which compound was still toxic” value with P4 MAGI CCR5+ cells (human) is “about 2 nM”. The CC50 in data set [3] (24 h, read-out: CC50) was < 0.002 µM.
In the case of `CC(=O)[C@]1(O)Cc2c(O)c3c(c(O)c2[C@@H](O[C@H]2C[C@H](N)[C@H](O)[C@H](C)O2)C1)C(=O)c1ccccc1C3=O` [NSC256439], the “inhibition of IN-GCN2 interaction” value in [1] is given as “around 70%”.
With `CC(=O)OC(C)C1C2=C(C(=O)CC1(C)O)C(=O)c1c(ccc(-c3ccc4c(c3O)C(=O)C3=C(C4=O)C(C(C)OC(C)=O)C(C)(O)CC3=O)c1O)C2=O` (centres unmarked) [NSC248605, Julimycin B2], the “effect on HIV replication, in words” value in the data set with HIV-1Laï is “anti-”. Further, the pEC50 – broadly, the EC50 on a negative log10 scale, so that one unit is a factor of ten – in the data set on HIV-1Laï (Human immunodeficiency virus 1, MAGI) was 6.78. Further, the pIC50 in data set [2] (setting [12]) is 4.52; at HIV-1 IN [4], 3.85. For the same compound, the “IN-GCN2 interaction (%)” value in data set [2] stood at 6.97%. Besides, the CC50 at 24 h in [3] (setting [13]) was > 5 µM.
Consider `COc1cc2c(cc3c4c(cc5c(c42)OCO5)CCN3C)c(OC)c1OC` [NSC785155], for which the pEC50 in the data set on HIV-1Laï (setting [14]) is < 5.30. Also, the “inhibition of ST activity, in words” value on HIV-1 IN [5] (111 µM to 51 nM) is on record as “unable to fully inhibit ST even at 111 µM”. Besides, the values for the pIC50 in data set [2] (setting [11]) and in data set [2] (setting [12]) were 5.25 and 4.84, respectively. Further, the “IN-GCN2 interaction (%)” value in data set [2] is listed as 8.90%. Moreover, the CC50 at 24 h in data set [3] (setting [13]) is > 5 µM. Besides, in data set [6], the “inhibition of IN phosphorylation, in words” value is “partially inhibited”. In addition, the “effect on GCN2 autophosphorylation, in words” value at GCN2 [7] is listed as “limited impact”.
Turning to “Recombinant full-length HIV-1 integrase (6xHis-IN fusion protein) (enzyme)”, in data set [8], the AlphaLISA signal (DMSO control, plate 1) was 5610 Alpha counts and the AlphaLISA signal (DMSO control, plate 2) amounted to 3900 Alpha counts.
`O=C1c2c(O)ccc(O)c2C(=O)c2c(NCCNCCO)ccc(NCCNCCO)c21` [NSC279836, mitoxantrone, reference compound] showed a pIC50 in data set [2] (setting [11]) of 5.62. The “apparent IC50, inhibition of IN phosphorylation” value in data set [9] is “low micromolar range”. Besides, the CC50 at 24 h in [3] is > 5 µM. The “concentration up to which GCN2 autophosphorylation was not affected” value at GCN2 [10] is recorded as 300 µM.
For the compound `CC1Oc2cc3c(-c4c(O)cc(O)c5c(O)c6c(cc45)OC(C)C(C)C6=O)c(O)cc(O)c3c(O)c2C(=O)C1C` (centres unmarked) [NSC345647, chaetochromin], in the data set on HIV-1Laï, the “effect on HIV replication, in words” value was “inactive” and the pEC50 was < 5.30. At HIV-1 IN [5], the “apparent IC50, inhibition of ST activity, in words” value is “mid-nanomolar concentration range”. This compound showed a pIC50 in data set [2] (setting [12]) of 5.28. In addition, in [2], the “IN-GCN2 interaction (%)” value worked out at 6.36%. Further, the CC50 at 24 h in [3] (24 h, read-out: CC50) was > 5 µM. The “inhibition of IN phosphorylation, in words” value in data set [6] was “full inhibition”. On GCN2 [7], the “effect on GCN2 autophosphorylation, in words” value was “inhibited GCN2 autophosphorylation”.
For `CCC1(O)CC(OC2CC(N(C)C)C(OC3CC(O)C(OC4CCC(=O)C(C)O4)C(C)O3)C(C)O2)c2c(cc3c(c2O)C(=O)c2c(O)ccc(O)c2C3=O)C1C(=O)OC` (centres unmarked) [NSC18334, cinerubin A], the pEC50 in the data set on HIV-1Laï (setting [14]) was 6.10. Moreover, the “apparent IC50, inhibition of ST activity, in words” value at HIV-1 IN [5] is “low-micromolar”. For the same compound, in data set [2], the “IN-GCN2 interaction (%)” value is listed as 5.47%. In data set [3] (24 h, read-out: CC50), the CC50 is > 5 µM. In addition, the “inhibition of IN phosphorylation, in words” value in [6] was “full inhibition”. On GCN2 [7], the “effect on GCN2 autophosphorylation, in words” value is on record as “inhibited GCN2 autophosphorylation”.
